# In ChEMBL document CHEMBL1149774, “Synthesis of N-(5,7-diamino-3-phenyl-quinoxalin-2-yl)-3,4,5-substituted anilines and N-[4[(5,7-diamino-3-phenylquinoxalin-2-yl)amino]benzoyl]-l-glutamic acid diethyl ester: evaluation of in vitro anti-cancer and anti-folate activities” (Eur J Med Chem, 2008):
# What was measured:
# Assay type in all cases: functional
# RXF 393 = assay: Growth inhibition of human RXF393 cells after 48 hrs by SRB staining method; details: RXF 393, 48 h
# HCT-15 = assay: Growth inhibition of human HCT15 cells after 48 hrs by SRB staining method; details: HCT-15, 48 h
# EKVX = assay: Growth inhibition of human EKVX cells after 48 hrs by SRB staining method
# TK-10 = assay: Growth inhibition of human TK10 cells after 48 hrs by SRB staining method; details: TK-10, 48 h
# ACHN = assay: Growth inhibition of human ACHN cells after 48 hrs by SRB staining method
# SN12C = assay: Growth inhibition of human SN12C cells after 48 hrs by SRB staining method
# HL-60 = assay: Growth inhibition of human HL60 cells after 48 hrs by SRB staining method; details: HL-60, 48 h
# PC-3 = assay: Growth inhibition of human PC3 cells after 48 hrs by SRB staining method; details: PC-3, 48 h
# UO-31 = assay: Growth inhibition of human UO31 cells after 48 hrs by SRB staining method; details: UO-31, 48 h
# SW-620 = assay: Growth inhibition of human SW620 cells after 48 hrs by SRB staining method; details: SW-620, 48 h
# K562 = assay: Growth inhibition of human K562 cells after 48 hrs by SRB staining method; details: K562, 48 h
# HOP-62 = assay: Growth inhibition of human HOP62 cells after 48 hrs by SRB staining method; details: HOP-62, 48 h
# CAKI-1 = assay: Growth inhibition of human CAKI1 cells after 48 hrs by SRB staining method; details: CAKI-1, 48 h
# SF-295 = assay: Growth inhibition of human SF295 cells after 48 hrs by SRB staining method; details: SF-295, 48 h
# OVCAR-4 = assay: Growth inhibition of human OVCAR4 cells after 48 hrs by SRB staining method; details: OVCAR-4, 48 h
# NCI-H23 = assay: Growth inhibition of human NCI-H23 cells after 48 hrs by SRB staining method; details: NCI-H23, 48 h
# DU-145 = assay: Growth inhibition of human DU145 cells after 48 hrs by SRB staining method; details: DU-145, 48 h
# [1] = Growth inhibition of human HS 578T cells after 48 hrs by SRB staining method
# IGROV-1 = assay: Growth inhibition of human IGROV1 cells after 48 hrs by SRB staining method; details: IGROV-1, 48 h
# SK-MEL-2 = assay: Growth inhibition of human SK-MEL-2 cells after 48 hrs by SRB staining method; details: SK-MEL-2, 48 h
# 786-0 = assay: Growth inhibition of human 786-0 cells after 48 hrs by SRB staining method; details: 786-0, 48 h
# SF-268 = assay: Growth inhibition of human SF268 cells after 48 hrs by SRB staining method; details: SF-268, 48 h
# T47D = assay: Growth inhibition of human T47D cells after 48 hrs by SRB staining method
# NCI/ADR-RES = assay: Growth inhibition of human NCI/ADR-RES cells after 48 hrs by SRB staining method
# OVCAR-3 = assay: Growth inhibition of human OVCAR-3 cells after 48 hrs by SRB staining method; details: OVCAR-3, 48 h
# UACC-62 = assay: Growth inhibition of human UACC62 cells after 48 hrs by SRB staining method; details: UACC-62, 48 h
# OVCAR-5 = assay: Growth inhibition of human OVCAR5 cells after 48 hrs by SRB staining method; details: OVCAR-5, 48 h
# HCT-116 = assay: Growth inhibition of human HCT116 cells after 48 hrs by SRB staining method; details: HCT-116, 48 h
# NCI-H522 = assay: Growth inhibition of human NCI-H522 cells after 48 hrs by SRB staining method; details: NCI-H522, 48 h
# SNB-19 = assay: Growth inhibition of human SNB19 cells after 48 hrs by SRB staining method; details: SNB-19, 48 h
# RPMI-8226 = assay: Growth inhibition of human RPMI8226 cells after 48 hrs by SRB staining method; details: RPMI-8226, 48 h
# U-251 = assay: Growth inhibition of human U251 cells after 48 hrs by SRB staining method; details: U-251, 48 h
# [2] = read-out: pLC50 (the source's name) (converted)
smiles,measurement,setting,value
COc1cc(Nc2nc3cc(N)cc(N)c3nc2-c2ccccc2)cc(OC)c1OC,GI50,RXF 393,14.5 µM
same,CC50,RXF 393; [2],83.2 µM
same,TGI,RXF 393; read-out: pTGI (converted),34.7 µM
same,GI50,HCT-15,15.1 µM
same,LC50,HCT-15,> 100 µM
same,TGI,HCT-15; read-out: pTGI (converted),45.7 µM
same,GI50,EKVX,17.8 µM
same,CC50,EKVX; [2],> 100 µM
same,TGI,EKVX; read-out: pTGI (converted),47.9 µM
same,GI50,TK-10,24 µM
same,CC50,TK-10; [2],> 100 µM
same,TGI,TK-10; read-out: pTGI (converted),66.1 µM
same,GI50,ACHN,16.6 µM
same,CC50,ACHN; [2],> 100 µM
same,TGI,ACHN; read-out: pTGI (converted),42.7 µM
same,GI50,SN12C,20.4 µM
same,CC50,SN12C; [2],> 100 µM
same,TGI,SN12C; read-out: pTGI (converted),83.2 µM
same,GI50,HL-60,6.61 µM
same,CC50,HL-60; [2],64.6 µM
same,TGI,HL-60; read-out: pTGI (converted),23.4 µM
same,GI50,PC-3,14.1 µM
same,CC50,PC-3; [2],> 100 µM
same,TGI,PC-3; read-out: pTGI (converted),58.9 µM
same,GI50,UO-31,15.1 µM
same,CC50,UO-31; [2],> 100 µM
same,TGI,UO-31; read-out: pTGI (converted),91.2 µM
same,GI50,SW-620,24 µM
same,CC50,SW-620; [2],> 100 µM
same,TGI,SW-620; read-out: pTGI (converted),> 100 µM
same,GI50,K562,12.6 µM
same,CC50,K562; [2],> 100 µM
same,TGI,K562; read-out: pTGI (converted),39.8 µM
same,GI50,HOP-62,16.2 µM
same,LC50,HOP-62,72.4 µM
same,TGI,HOP-62; read-out: pTGI (converted),34.7 µM
same,GI50,CAKI-1,15.5 µM
same,CC50,CAKI-1; [2],> 100 µM
same,TGI,CAKI-1; read-out: pTGI (converted),49 µM
same,GI50,SF-295,15.8 µM
same,LC50,SF-295,> 100 µM
same,TGI,SF-295; read-out: pTGI (converted),42.7 µM
same,GI50,OVCAR-4,0.0316 µM
same,LC50,OVCAR-4,25.7 µM
same,TGI,OVCAR-4; read-out: pTGI (converted),0.891 µM
same,GI50,NCI-H23,25.1 µM
same,LC50,NCI-H23,> 100 µM
same,TGI,NCI-H23; read-out: pTGI (converted),75.9 µM
same,GI50,DU-145,21.9 µM
same,CC50,DU-145; [2],> 100 µM
same,TGI,DU-145; read-out: pTGI (converted),74.1 µM
same,GI50,[1],15.1 µM
same,CC50,[1]; [2],> 100 µM
same,TGI,[1]; read-out: pTGI (converted),77.6 µM
same,GI50,IGROV-1,15.8 µM
same,LC50,IGROV-1,> 100 µM
same,TGI,IGROV-1; read-out: pTGI (converted),57.5 µM
same,GI50,SK-MEL-2,15.8 µM
same,LC50,SK-MEL-2,77.6 µM
same,TGI,SK-MEL-2; read-out: pTGI (converted),35.5 µM
same,GI50,786-0,14.5 µM
same,CC50,786-0; [2],> 100 µM
same,TGI,786-0; read-out: pTGI (converted),40.7 µM
same,GI50,SF-268,18.2 µM
same,CC50,SF-268; [2],> 100 µM
same,TGI,SF-268; read-out: pTGI (converted),60.3 µM
same,GI50,T47D,6.03 µM
same,CC50,T47D; [2],95.5 µM
same,TGI,T47D; read-out: pTGI (converted),31.6 µM
same,GI50,NCI/ADR-RES,14.5 µM
same,CC50,NCI/ADR-RES; [2],> 100 µM
same,TGI,NCI/ADR-RES; read-out: pTGI (converted),43.7 µM
same,GI50,OVCAR-3,14.1 µM
same,LC50,OVCAR-3,97.7 µM
same,TGI,OVCAR-3; read-out: pTGI (converted),37.2 µM
same,GI50,UACC-62,13.5 µM
same,LC50,UACC-62,74.1 µM
same,TGI,UACC-62; read-out: pTGI (converted),31.6 µM
same,GI50,OVCAR-5,21.4 µM
same,LC50,OVCAR-5,> 100 µM
same,TGI,OVCAR-5; read-out: pTGI (converted),46.8 µM
same,GI50,HCT-116,15.5 µM
same,LC50,HCT-116,75.9 µM
same,TGI,HCT-116; read-out: pTGI (converted),33.9 µM
same,GI50,NCI-H522,18.2 µM
same,LC50,NCI-H522,> 100 µM
same,TGI,NCI-H522; read-out: pTGI (converted),53.7 µM
same,GI50,SNB-19,33.1 µM
same,LC50,SNB-19,> 100 µM
same,TGI,SNB-19; read-out: pTGI (converted),> 100 µM
same,GI50,RPMI-8226,12.3 µM
same,CC50,RPMI-8226; [2],85.1 µM
same,TGI,RPMI-8226; read-out: pTGI (converted),32.4 µM
same,GI50,U-251,24.5 µM
same,LC50 (50% lethal concentration),U-251,> 100 µM
same,TGI,U-251; read-out: pTGI (converted),> 100 µM
